# From US20100240074A1 (priority 2007, published 2010)
# Tests used:
# Assay type in all cases: cell-based, Saccharomyces cerevisiae
# [1] = system: MATa-type super barrier-free YKO strains; assay: Cycloheximide sensitivity of MATa-type super barrier-free YKO strains; conditions: cycloheximide 25 ng/ml; all strains
# Description: Instead of picking up the entire grown colonies with the 96-pin replicator, the grown colonies were picked up one by one (1 colony/strain) with a toothpick to transfer it onto new MATa selection agar medium, and culture at 30° C. for 7 days. Grown cells were picked up with a disposable 96-pin replicator, suspended in 100 μl of MATa selection liquid medium, and cultured at 25° C. for 2 to 7 days. Subsequently, the grown cells were transferred to a 384-well plate using a dispenser robot SHOTMASTER 3000.
# barrier-free yeast = assay: Cycloheximide sensitivity of barrier-free yeast; conditions: cycloheximide 50 ng/ml
# [2] = system: barrier-free strain (BF:KE457); assay: Evaluation of sensitivity to rapamycin (area score, ARS), barrier-free strain; conditions: FIG. 5
# Description: (§1) In the same manner as in Example 5, to confirm drug sensitivity of the barrier-free YKO (BF-YKO) and super barrier-free YKO (SBF-YKO), changes in sensitivity of the yeasts caused by the proliferation inhibiting effect of rapamycin were examined using a parent strain and a partner strain.
# (§2) A rapamycin solution was added to a 96-well plate such that the concentration of rapamycin (Sigma-Aldrich, #R0395) was varied within the range of from 0.2 nM to 50 nM. A parent strain (WT:BY4741, Open Biosystems, #YSC1048), a barrier-free strain (BF:KE457), and a super barrier-free strain (SBF:KE477), which had been subjected to static culture at room temperature for 2 days, were added such that the final cell numbers was at a 1000-fold dilution, and then subjected to static culture at 30° C.
# (§3) Thereafter, light absorbance thereof at 620 nm was measured over time using a plate reader (SUNRISE, manufactured by Tecan) for 48 hours. Calculation of the cell proliferation inhibiting activity was carried out using the area score method (ARS) described in Japanese Patent Application Laid-Open No. 2006-141298. In ARS, a larger value indicates a greater cell proliferation inhibiting activity.
# [3] = system: super barrier-free strain (SBF:KE477); assay: Evaluation of sensitivity to rapamycin (area score, ARS), super barrier-free strain
# Description: as §1, §2, §3
# [4] = system: parent strain (WT:BY4741); assay: Evaluation of sensitivity to rapamycin (area score, ARS), parent strain; conditions: FIG. 5
# Description: as §1, §2, §3
# [5] = system: parent strain (WT:BY4742); assay: Evaluation of sensitivity to lovastatin (area score, ARS), parent strain; conditions: lovastatin concentration 100 μM, FIG. 4
# Description: (§4) A lovastatin solution was added to a 96-well plate such that the concentration of lovastatin (Sigma-Aldrich, #M2147) was within the range of from 0.39 μM to 100 μM. A parent strain (WT:BY4742, Open Biosystems, #YSC1049) a partner strain for barrier-free YKO (BF:KE458), and a partner strain for super barrier-free YKO (SBF:KE513), which had been subjected to static culture at room temperature for 2 days, were added to the plate such that the final cell number was at a 2000-fold dilution, and then subjected to static culture at 30° C.
# as §3
# [6] = system: commercially available YKO (Invitrogen, #95401.H2) knockout strains; assay: Identification of target molecule using commercially available YKO collection (sensitivity ranking by area score)
# Description: Identification of a target molecule of lovastatin was conducted in the same manner as in Example 7, except that commercially available YKO (Invitrogen, #95401.H2) composed of 4,847 strains was used instead of BF-YKO.
# Identification of a target molecule of rapamycin was conducted in the same manner as in Example 9, except that commercially available YKO (Invitrogen, #95401.H2) composed of 4,847 strains was used instead of SBF-YKO and that the compound concentrations were changed to 10 nM, 12.5 nM and 15 nM.
# [7] = system: partner strain for barrier-free YKO (BF:KE458); assay: Evaluation of sensitivity to lovastatin (area score, ARS), barrier-free partner strain
# Description: as §4, §3
# [8] = system: partner strain for super barrier-free YKO (SBF:KE513); assay: Evaluation of sensitivity to lovastatin (area score, ARS), super barrier-free partner strain
# Description: as §4, §3
# [9] = system: barrier-free YKO (BF-YKO) knockout strains; assay: Identification of target molecule using barrier-free YKO (sensitivity ranking by area score)
# Description: Using the barrier-free YKO (BF-YKO) composed of 3,011 strains as prepared above, a target molecule of lovastatin was identified. The strains of BF-YKO were inoculated into twelve 384-well plates (1 strain/well) in an ordered manner. The static culture was performed for 3 to 7 days to equalize the number of cells across all strains. The cells were diluted 196-fold, thereby obtaining a cell dilution.
# On the other hand, 384-well plates wherein 20 μl of YPAD medium containing 3.9 μM, 7.8 μM or 15.6 μM lovastatin was added to each well, and 384-well plates in which 20 μl of lovastatin-free YPAD medium was added to each well were prepared. 5 μl of the obtained cell dilution was added to each well. By this operation, the cells were diluted 1000-fold and the respective concentrations of the compound were adjusted to 3.125 μM, 6.25 μM and 12.5 μM.
# (§5) These cells were cultured at 25° C., and light absorbance thereof at 650 nm was measured over time using a plate reader (SPECTRAMAX340PC384, Molecular Devices) from about 22 hours to 48 hours after the beginning of the culture. The area scores (ARS) were calculated based on the obtained data, thereby ranking the sensitivity.
# [10] = system: super barrier-free YKO (SBF-YKO) knockout strains; assay: Identification of target molecule using super barrier-free YKO (sensitivity ranking by area score); conditions: lovastatin 3.125 μM
# Description: Identification of a target molecule of lovastatin was conducted using the super barrier-free YKO (SBF-YKO) composed of 4,044 strains prepared as above. The SBF-YKO strains were inoculated into twelve 384-well plates (1 strain/well) in an ordered manner, and subjected to 3 to 7 days of static culture to equalize the number of cells across all strains. The cells were diluted 196-fold, thereby obtaining a cell dilution.
# On the other hand, 384-well plates in which 20 μl of YPAD medium containing 3.9 μM lovastatin was added to each well, and 384-well plates in which 20 μl of lovastatin-free YPAD medium was added to each well were prepared. 5 μl of the obtained cell dilution was added to each well. By this operation, the cells were diluted 1000-fold and the compound concentration was adjusted to 3.125 μM.
# as §5
# In the same manner as in Example 6, identification of a target molecule of rapamycin was conducted using super barrier-free YKO (SBF-YKO). Each of the SBF-YKO strains was subjected to 3 to 7 days of static culture to equalize the number of cells across all strains. […]
# [11] = based on lovastatin concentrations at which an area score of about 10 was obtained
compound,measurement,setting,value
C[C@@H]1C[C@@H]([C@H](O)CC2CC(=O)NC(=O)C2)C(=O)[C@@H](C)C1 [cycloheximide],growth in the presence of cycloheximide,[1],could not grow
same,growth in the presence of cycloheximide,barrier-free yeast,cannot grow
CO[C@H]1C[C@@H]2CC[C@@H](C)[C@@](O)(O2)C(=O)C(=O)N2CCCC[C@H]2C(=O)O[C@H]([C@H](C)C[C@@H]2CC[C@@H](O)[C@H](OC)C2)CC(=O)[C@H](C)/C=C(\C)[C@@H](O)[C@@H](OC)C(=O)[C@H](C)C[C@H](C)/C=C/C=C/C=C/1C [rapamycin],concentration at which maximum cell proliferation inhibiting effect was observed,[2],50 nM
same,concentration at which maximum effect was exhibited,[3]; FIG. 5,6.25 nM
same,sensitization relative to the WT strain,[3]; based on rapamycin concentrations at which an area score of about 10 was obtained,8 times
same,concentration at which maximum cell proliferation inhibiting effect was observed,[4],50 nM
CC[C@H](C)C(=O)O[C@H]1C[C@@H](C)C=C2C=C[C@H](C)[C@H](CC[C@@H]3C[C@@H](O)CC(=O)O3)[C@H]21 [lovastatin],cell proliferation inhibiting effect,[5],only a slight cell proliferation inhibiting effect
same,sensitivity of HMG1 gene knockout strain,[6]; lovastatin 3.125 μM,not found as a strain exhibiting sensitivity
same,sensitivity of BTS1-knockout strain,[6]; lovastatin 3.125 μM and 12.5 μM,not found as a strain exhibiting sensitivity
same,sensitivity of HMG1 gene knockout strain,[6]; lovastatin 12.5 μM,not found as a strain exhibiting sensitivity
same,concentration at which maximum inhibiting activity was exhibited,[7]; FIG. 4,50 µM
same,sensitization relative to the WT strain,[7]; [11],8 times
same,concentration at which maximum inhibiting activity was exhibited,[8]; FIG. 4,25 µM
same,sensitization relative to the WT strain,[8]; [11],16 times
same,sensitivity of HMG1 gene knockout strain,[9]; lovastatin 6.25 μM,high sensitivity
same,sensitivity of HMG1 gene knockout strain,[9]; lovastatin 12.5 μM,high sensitivity
same,sensitivity of BTS1-knockout strain,[10],most sensitive knockout strain
same,sensitivity of HMG1 gene knockout strain,[10],high sensitivity
